Tested on: MCF7 breast cancer cells
Experiment: Luc-CTL assay (luciferase-based readout of CTL-mediated tumor cell lysis, with viability control without CTLs)
Conditions: for T cell mediated lysis of luciferase transfected MCF7 breast cancer target cells (reduction of luciferase activity): co-culture with survivin specific CTL clone, deconvoluted siRNA pool (FIG. 5A, 10A); for viability of luciferase transfected MCF7 breast cancer cells: in the absence of T cells (FIG. 5B, 10B)
From the text: In order to comprehensively identify immune checkpoint regulators in an unbiased manner, we harnessed a previously described approach to measure tumor-specific T-cell cytotoxicity which is based on quantifying residual cell-associated luciferase expression following exposure of Luc-expressing cancer cells with CTLs (Brown et al., 2005). We adapted and extended aforementioned approach for high-throughput RNAi screening purposes and termed it ‘Luc-CTL’ assay. Briefly, the screening experiment was set up as follows: In total, three RNAi screens were performed in duplicate and reverse transfection of cells with siRNA pools was performed by delivering 15 μl of RPMI (Invitrogen) containing 0.05 μl of RNAiMAX (Invitrogen). After 30 min of incubation at room temperature, 3000 MCF7 cells (screen 1: MCF7 stably expressing luciferase, screen 2 and 3: wild-type MCF7 cells) in 30 μl of DMEM medium (Invitrogen) supplemented with 10% FBS (Invitrogen) were added to the siRNA transfection mix. Plates were then incubated at 37° C., 5% CO2. 24 h later, cells were either transiently transfected with a luciferase expression plasmid (screen 2) using TransIT-LT1 transfection reagent (Mirius Bio LLC, Madison, USA) according to the manufacturer's instructions or not (screen 1 and screen 3). 72 h post siRNA transfection cancer cells were either challenged with CTLs and anti-CD3×anti-EpCAM bi-specific antibody (screen 1 and screen 2; condition with addition of CTLs) or not (screen 1 and screen 2; condition without addition of CTLs and screen 3). […]
Plate reader data from RNAi screens were statistically analyzed using the cellHTS2 package in R/Bioconductor (Boutros et al., 2006). […] For screen 1 and screen 2, scores from both conditions, i.e. addition of CTLs and without addition of CTLs, were further quantile normalized against each other using the aroma.light package in R. Differential scores were calculated by subtracting quantile normalized scores without addition of CTLs from scores derived with addition of CTLs. In order to robustly identify genes that positively modulate CTL mediated cytotoxicity and to avoid biases potentially introduced by employing CTLs from different donors and employing genetically engineered as well as unmodified MCF7 cells, the 150 top-ranking genes as evaluated by the differential score were extracted for the independent screens 1 and 2 and the overlap between candidate lists was determined. […] Thereby, siRNAs generally affecting cell viability, as determined by intracellular ATP levels, could be excluded.
In order to identify tumor-associated genes that inhibit cell killing by cytotoxic T lymphocytes (CTL), we adapted a luciferase-based readout assay, henceforth referred to as Luc-CTL assay (FIG. 1A). […]

Row | Substance | T cell mediated lysis of luciferase transfected MCF7 breast cancer target cells (reduction of luciferase activity) | viability of luciferase transfected MCF7 breast cancer cells
1 | TAS2R3 siRNA s4: TAS2R3 siRNA, sequence GCAGACAUUUGUAGUGAUG, SEQ ID NO: 4 (listed as RNA, chemistry not given here) | significantly increase | no impact
2 | TAS2R3 siRNA s3: TAS2R3 siRNA, sequence CCGCAUCUCUGAUCAAUGA, SEQ ID NO: 3 (listed as RNA, chemistry not given here) | significantly increase | no impact
